Source: patent publication US5480902A, “Thienylpyrrole fungicidal agents” (American Cyanamid Company, priority 1993, dated 1996)
Like-named read-outs stand apart in the source and are kept apart here.

Key:
Pyricularia oryzae = type: in vivo; details: sprayed on host plants before inoculation
[1] = test system: Erysiphe graminis f. sp. tritici; assay: In vivo fungicidal activity on host plants, Wheat Powdery Mildew (WPM); details: sprayed on host plants before inoculation
Botrytis cinerea = assay: In vivo fungicidal activity on host plants, Pepper Botrytis (PB); details: sprayed on host plants before inoculation
Venturia inaegualis = assay: In vivo fungicidal activity on host plants, Apple Scab (AS); details: sprayed on host plants before inoculation
[2] = test system: Puccinia recondita f. sp. tritici; assay: In vivo fungicidal activity on host plants, Wheat Leaf Rust (WLR); details: 400 ppm; sprayed on host plants before inoculation
Rhizoctonia solani = assay: In vitro fungicidal activity, growth inhibition of ground fungal mycelia (RHIZSO); type: cell-based; details: 3-4 days at 21° C., averaged when more than one test, read-out: Growth inhibition rating, RHIZSO
Procedure: (§1) Test compounds are dissolved or suspended in acetone and dispersed into cell well plates containing a suspension of ground fungal mycelia in a nutrient broth. Assay plates are incubated for 3-4 days at 21° C. Growth inhibition is measured visually and is rated using the following scale:
(§2) Assay fungi include the plant pathogens, Pythium ultimum (Pythul); Rhizoctonia solani (Rhizso); Fusarium oxysporum f. sp. cucumerinum (Fusoxc); and Pseudocercosporella herpotrichoides (Psdche).
(§3) When more than one test is run, the data are averaged.

Pythium ultimum = assay: In vitro fungicidal activity, growth inhibition of ground fungal mycelia (PYTHUL); type: cell-based; details: Globisporangium ultimum, 3-4 days at 21° C., averaged when more than one test, read-out: Growth inhibition rating, PYTHUL (converted)
Procedure: as §1, §2, §3

Cercospora beticola = assay: In vivo fungicidal activity on host plants, Sugar Beet Cercospora (SBC); details: sprayed on host plants before inoculation; also: ranges in brackets are in %
[3] = test system: Pseudocercosporella herpotrichoides; assay: In vitro fungicidal activity, growth inhibition of ground fungal mycelia (PSDCHE); type: cell-based; details: Oculimacula yallundae, 3-4 days at 21° C., averaged when more than one test, read-out: Growth inhibition rating, PSDCHE (converted)
Procedure: as §1, §2, §3

Plasmopara viticola = assay: In vivo fungicidal activity on host plants, Grape Downy Mildew (GDM); details: sprayed on host plants before inoculation
[4] = test system: Fusarium oxysporum f. sp. cucumerinum; assay: In vitro fungicidal activity, growth inhibition of ground fungal mycelia (FUSOXC); type: cell-based; details: read-out: Growth inhibition rating, FUSOXC
Procedure: as §1, §2, §3

[5] = 25 ppm, 3-4 days at 21° C., averaged when more than one test

N#Cc1c(-c2oc3ccccc3c2Cl)[nH]c(Cl)c1Cl [Compound 1, 4,5-Dichloro-2-(3-chloro-2-benzofuranyl)pyrrole-3-carbonitrile]
Disease control rating, RB (Pyricularia oryzae; 400 ppm): 4 (45-59) | Disease control rating, WPM ([1]; 400 ppm): 0 (0) | Disease control rating, PB (Botrytis cinerea; 400 ppm): 2 (15-29) | Disease control rating, AS (Venturia inaegualis; 400 ppm): 0 (0) | Disease control rating, WLR [2]: 2 (15-29) | inhibition at 25 ppm (Rhizoctonia solani): 1 to 29% | inhibition at 25 ppm (Pythium ultimum): 1 to 29% | Disease control rating, SBC (Cercospora beticola; 400 ppm): 0 (0) | inhibition at 25 ppm [3]: 1 to 29%

N#Cc1cc(C(F)(F)F)[nH]c1-c1cccs1 [Compound 2, 2-(2-Thienyl)-5-(trifluoromethyl)pyrrole-3-carbonitrile]
Disease control rating, RB (Pyricularia oryzae; 400 ppm): 5 (60-74) | Disease control rating, WPM ([1]; 400 ppm): 9 (100) | Disease control rating, GDM (Plasmopara viticola; 400 ppm): 9 (100) | Disease control rating, AS (Venturia inaegualis; 400 ppm): 9 (100) | Disease control rating, WLR [2]: 9 (100) | inhibition at 25 ppm (Pythium ultimum): 100% | Disease control rating, SBC (Cercospora beticola; 400 ppm): 0 (0)

N#Cc1c(-c2ccc(Br)s2)[nH]c(C(F)(F)F)c1Br [Compound 3, 4-Bromo-2-(5-bromo-2-thienyl)-5-(trifluoromethyl)pyrrole-3-carbonitrile]
Disease control rating, RB (Pyricularia oryzae; 400 ppm): 0 (0) | Disease control rating, WPM ([1]; 400 ppm): 7 (90-95) | Disease control rating, GDM (Plasmopara viticola; 400 ppm): 9 (100) | Disease control rating, AS (Venturia inaegualis; 400 ppm): 9 (100) | Disease control rating, WLR [2]: 9 (100) | inhibition at 25 ppm [3]: 30 to 59%

FC(F)(F)c1[nH]c(-c2ccc(Cl)cc2)cc1-c1ccco1 [Compound 4, 5-(p-Chlorophenyl)-3-(2-furyl)-2-(trifluoromethyl)pyrrole]
Disease control rating, RB (Pyricularia oryzae; 400 ppm): 1 (1-14) | Disease control rating, WPM ([1]; 400 ppm): 0 (0) | Disease control rating, PB (Botrytis cinerea; 400 ppm): 0 (0) | Disease control rating, GDM (Plasmopara viticola; 400 ppm): 8 (96-99) | Disease control rating, AS (Venturia inaegualis; 400 ppm): 2 (15-29) | Disease control rating, WLR [2]: 6 (75-89) | inhibition at 25 ppm (Pythium ultimum): 60 to 89% | Disease control rating, SBC (Cercospora beticola; 400 ppm): 0 (0) | inhibition at 25 ppm [3]: 100%

O=[N+]([O-])c1ccc(-c2c(C(F)(F)F)[nH]c(-c3ccc(Cl)cc3)c2[N+](=O)[O-])s1 [Compound 5, 2-(p-Chlorophenyl)-3-nitro-4-(5-nitro-2-thienyl)-5-(trifluoromethyl)pyrrole]
Disease control rating, RB (Pyricularia oryzae; 400 ppm): 0 (0) | Disease control rating, WPM ([1]; 400 ppm): 0 (0) | Disease control rating, PB (Botrytis cinerea; 400 ppm): 0 (0) | Disease control rating, GDM (Plasmopara viticola; 400 ppm): 9 (100) | Disease control rating, AS (Venturia inaegualis; 400 ppm): 4 (45-59) | inhibition at 25 ppm [4]: 30 to 59% | Disease control rating, WLR [2]: 6 (75-89) | inhibition at 25 ppm (Rhizoctonia solani): 90 to 99% | inhibition at 25 ppm [3]: 60 to 89%

N#Cc1cc(-c2ccc(Cl)s2)[nH]c1Cl [Compound 6, 2-Chloro-5-(5-chloro-2-thienyl)pyrrole-3-carbonitrile]
Disease control rating, RB (Pyricularia oryzae; 400 ppm): 0 (0) | Disease control rating, WPM ([1]; 400 ppm): 0 (0) | Disease control rating, PB (Botrytis cinerea; 400 ppm): 0 (0) | Disease control rating, GDM (Plasmopara viticola; 400 ppm): 7 (90-95) | Disease control rating, AS (Venturia inaegualis; 400 ppm): 9 (100) | Disease control rating, WLR [2]: 6 (75-89) | inhibition at 25 ppm (Rhizoctonia solani): 60 to 89% | Disease control rating, SBC (Cercospora beticola; 400 ppm): 6 (75-89) | inhibition at 25 ppm [3]: 60 to 89%

O=[N+]([O-])c1c(-c2ccc(Cl)cc2)[nH]c(C(F)(F)F)c1-c1csc(Br)c1 [Compound 8, 3-(5-Bromo-3-thienyl)-5-(p-chlorophenyl)-4-nitro-2-(trifluoromethyl)pyrrole]
Disease control rating, RB (Pyricularia oryzae; 400 ppm): 4 (45-59) | Disease control rating, WPM ([1]; 400 ppm): 0 (0) | Disease control rating, PB (Botrytis cinerea; 400 ppm): 0 (0) | Disease control rating, GDM (Plasmopara viticola; 400 ppm): 9 (100) | Disease control rating, AS (Venturia inaegualis; 400 ppm): 8 (96-99) | inhibition at 25 ppm [4, 5]: 0% | Disease control rating, WLR [2]: 7 (90-95) | inhibition at 25 ppm (Rhizoctonia solani): 30 to 59% | inhibition at 25 ppm (Pythium ultimum): 0% | inhibition at 25 ppm [3]: 0%

O=[N+]([O-])c1c(-c2ccc(Cl)cc2)[nH]c(C(F)(F)F)c1-c1csc(Br)c1Br [Compound 10, 2-(p-Chlorophenyl)-4-(4,5-dibromo-3-thienyl)-3-nitro-5-(trifluoromethyl)pyrrole]
Disease control rating, RB (Pyricularia oryzae; 400 ppm): 7 (90-95) | Disease control rating, WPM ([1]; 400 ppm): 4 (45-59) | Disease control rating, PB (Botrytis cinerea; 400 ppm): 0 (0) | Disease control rating, GDM (Plasmopara viticola; 400 ppm): 7 (90-95) | Disease control rating, AS (Venturia inaegualis; 400 ppm): 0 (0) | inhibition at 25 ppm (Pythium ultimum): 0% | Disease control rating, SBC (Cercospora beticola; 400 ppm): 0 (0) | inhibition at 25 ppm [3]: 0%

N#Cc1cc(C(F)(F)F)[nH]c1-c1ccco1 [Compound 11, 2-(2-Furyl)-5-(trifluoromethyl)pyrrole-3-carbonitrile]
Disease control rating, RB (Pyricularia oryzae; 200 ppm): 0 (0) | Disease control rating, PB (Botrytis cinerea; 200 ppm): 0 (0) | Disease control rating, GDM (Plasmopara viticola; 200 ppm): 0 (0) | Disease control rating, AS (Venturia inaegualis; 200 ppm): 0 (0) | inhibition at 25 ppm [4, 5]: 0% | inhibition at 25 ppm (Pythium ultimum): 90 to 99% | Disease control rating, SBC (Cercospora beticola; 200 ppm): 0 (0) | inhibition at 25 ppm [3]: 0%

N#Cc1c(-c2cccs2)[nH]c(C(F)(F)F)c1Cl [Compound 12, 4-Chloro-2-(2-thienyl)-5-(trifluoromethyl)pyrrole-3-carbonitrile]
Disease control rating, RB (Pyricularia oryzae; 200 ppm): 0 (0) | Disease control rating, WPM ([1]; 200 ppm): 8 (96-99) | Disease control rating, PB (Botrytis cinerea; 200 ppm): 0 (0) | Disease control rating, GDM (Plasmopara viticola; 200 ppm): 8 (96-99) | Disease control rating, AS (Venturia inaegualis; 200 ppm): 4 (45-59) | inhibition at 25 ppm [4, 5]: 0% | inhibition at 25 ppm (Rhizoctonia solani): 90 to 99% | inhibition at 25 ppm (Pythium ultimum): 90 to 99% | Disease control rating, SBC (Cercospora beticola; 200 ppm): 0 (0) | inhibition at 25 ppm [3]: 0%

CCOCn1c(-c2ccc(Br)s2)c(C#N)c(Br)c1C(F)(F)F [Compound 13, 4-Bromo-2-(5-bromo-2-thienyl)-1-(ethoxymethyl)-5-(trifluoromethyl)pyrrole-3-carbonitrile]
Disease control rating, RB (Pyricularia oryzae; 200 ppm): 0 (0) | Disease control rating, WPM ([1]; 200 ppm): 9 (100) | Disease control rating, PB (Botrytis cinerea; 200 ppm): 0 (0) | Disease control rating, GDM (Plasmopara viticola; 200 ppm): 0 (0) | Disease control rating, AS (Venturia inaegualis; 200 ppm): 0 (0) | inhibition at 25 ppm [4, 5]: 0% | inhibition at 25 ppm (Rhizoctonia solani): 30 to 59% | inhibition at 25 ppm (Pythium ultimum): 0% | Disease control rating, SBC (Cercospora beticola; 200 ppm): 0 (0) | inhibition at 25 ppm [3]: 0%

N#Cc1cc(C(F)(F)F)[nH]c1-c1ccc(Br)o1 [Compound 14, 2-(5-Bromo-2-furyl)-5-(trifluoromethyl)pyrrole-3-carbonitrile]
Disease control rating, RB (Pyricularia oryzae; 200 ppm): 0 (0) | Disease control rating, WPM ([1]; 200 ppm): 6 (75-89) | Disease control rating, PB (Botrytis cinerea; 200 ppm): 0 (0) | Disease control rating, GDM (Plasmopara viticola; 200 ppm): 6 (75-89) | Disease control rating, AS (Venturia inaegualis; 200 ppm): 0 (0) | inhibition at 25 ppm [4, 5]: 0% | inhibition at 25 ppm (Rhizoctonia solani): 30 to 59% | Disease control rating, SBC (Cercospora beticola; 200 ppm): 0 (0) | inhibition at 25 ppm [3]: 0%

N#Cc1cc(C(F)(F)F)[nH]c1-c1ccc(Br)s1 [Compound 15, 2-(5-Bromo-2-thienyl)-5-(trifluoromethyl)pyrrole-3-carbonitrile]
inhibition at 25 ppm [4, 5]: 0% | inhibition at 25 ppm (Rhizoctonia solani): 60 to 89% | inhibition at 25 ppm (Pythium ultimum): 0% | inhibition at 25 ppm [3]: 0%

N#Cc1cc(C(F)(F)F)[nH]c1-c1ccc(Cl)s1 [Compound 16, 2-(5-Chloro-2-thienyl)-5-(trifluoromethyl)pyrrole-3-carbonitrile]
inhibition at 25 ppm [4, 5]: 0% | inhibition at 25 ppm (Rhizoctonia solani): 60 to 89% | inhibition at 25 ppm (Pythium ultimum): 0% | inhibition at 25 ppm [3]: 0%

N#Cc1c(-c2ccc(Cl)s2)[nH]c(C(F)(F)F)c1Br [Compound 17, 4-Bromo-2-(5-chloro-2-thienyl)-5-(trifluoromethyl)pyrrole-3-carbonitrile]
inhibition at 25 ppm [4, 5]: 0% | inhibition at 25 ppm (Rhizoctonia solani): 60 to 89% | inhibition at 25 ppm (Pythium ultimum): 30 to 59% | inhibition at 25 ppm [3]: 0%

CCOCn1c(-c2ccc(Cl)s2)c(C#N)c(Br)c1C(F)(F)F [Compound 18, 4-Bromo-2-(5-chloro-2-thienyl)-1-(ethoxymethyl)-5-(trifluoromethyl)pyrrole-3-carbonitrile]
inhibition at 25 ppm [4, 5]: 0% | inhibition at 25 ppm (Rhizoctonia solani): 30 to 59% | inhibition at 25 ppm (Pythium ultimum): 0% | inhibition at 25 ppm [3]: 0%

N#Cc1c(-c2ccc(Br)o2)[nH]c(C(F)(F)F)c1Br [Compound 19, 4-Bromo-2-(5-bromo-2-furyl)-5-(trifluoromethyl)pyrrole-3-carbonitrile]
inhibition at 25 ppm [4, 5]: 0% | inhibition at 25 ppm (Rhizoctonia solani): 0% | inhibition at 25 ppm (Pythium ultimum): 0% | inhibition at 25 ppm [3]: 0%

N#Cc1cc(C(F)(F)F)[nH]c1-c1cc(Br)cs1 [Compound 20, 2-(4-Bromo-2-thienyl)-5-(trifluoromethyl)pyrrole-3-carbonitrile]
inhibition at 25 ppm [4, 5]: 0% | inhibition at 25 ppm (Rhizoctonia solani): 0% | inhibition at 25 ppm (Pythium ultimum): 0% | inhibition at 25 ppm [3]: 0%

N#Cc1c(-c2cc(Br)c(Br)s2)[nH]c(C(F)(F)F)c1Br [Compound 21, 4-Bromo-2-(4,5-dibromo-2-thienyl)-5-(trifluoromethyl)pyrrole-3-carbonitrile]
inhibition at 25 ppm [4, 5]: 0% | inhibition at 25 ppm (Rhizoctonia solani): 0% | inhibition at 25 ppm (Pythium ultimum): 0% | inhibition at 25 ppm [3]: 0%

CCOCn1c(-c2ccc(Br)o2)c(C#N)c(Br)c1C(F)(F)F [Compound 22, 4-Bromo-2-(5-bromo-2-furyl)-1-(ethoxymethyl)-5-(trifluoromethyl)pyrrole-3-carbonitrile]
inhibition at 25 ppm [4, 5]: 0% | inhibition at 25 ppm (Rhizoctonia solani): 0% | inhibition at 25 ppm (Pythium ultimum): 0% | inhibition at 25 ppm [3]: 0%
